Key:
Experiment in all cases: cells
RPMI-8866 = format: functional, cell-based; conditions: Homo sapiens
Description: SANGER: Inhibition of human RPMI-8866 cell growth in a cell viability assay.

GT3TKB = format: functional, cell-based, Homo sapiens; conditions: Homo sapiens, GT3TKB;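 note: growth inhibition of the cell line, read out with a cell viability assay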
Description: SANGER: Inhibition of human GT3TKB cell growth in a cell viability assay.

LAMA-84 = format: functional, cell-based; conditions: Homo sapiens;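 note: growth inhibition of LAMA-84 cells, read out with a cell viability assay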
Description: SANGER: Inhibition of human LAMA-84 cell growth in a cell viability assay.

D-502MG = format: functional, cell-based, Homo sapiens; conditions: Homo sapiens, D-502MG
Description: SANGER: Inhibition of human D-502MG cell growth in a cell viability assay.

SK-PN-DW = format: functional, cell-based; conditions: Homo sapiens;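 note: growth inhibition measured with a viability assay on these cells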
Description: SANGER: Inhibition of human SK-PN-DW cell growth in a cell viability assay.

J-RT3-T3-5 = format: functional, cell-based; conditions: Homo sapiens;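 note: cell viability assay measuring growth inhibition of human J-RT3-T3-5 cells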
Description: SANGER: Inhibition of human J-RT3-T3-5 cell growth in a cell viability assay.

CTB-1 = format: functional, cell-based; conditions: Homo sapiens
Description: SANGER: Inhibition of human CTB-1 cell growth in a cell viability assay.

KNS-42 = format: functional, cell-based, Homo sapiens; conditions: Homo sapiens, KNS-42;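 note: growth inhibition of KNS-42 cells, read out with a cell viability assay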
Description: SANGER: Inhibition of human KNS-42 cell growth in a cell viability assay.

C2BBe1 = format: functional, cell-based, Homo sapiens; conditions: Homo sapiens, C2BBe1;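 note: growth inhibition of C2BBe1 cells, read out through a viability assay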
Description: SANGER: Inhibition of human C2BBe1 cell growth in a cell viability assay.

DJM-1 = format: functional, cell-based, Homo sapiens; conditions: Homo sapiens, DJM-1;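 note: growth inhibition of human DJM-1 cells, read out by a cell viability assay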
Description: SANGER: Inhibition of human DJM-1 cell growth in a cell viability assay.

TK-10 = format: functional, cell-based, Homo sapiens; conditions: Homo sapiens, TK-10;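 note: growth inhibition of TK-10 cells, read out in a cell viability assay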
Description: SANGER: Inhibition of human TK10 cell growth in a cell viability assay.

NB13 = format: functional, cell-based, Homo sapiens; conditions: Homo sapiens, NB13;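 note: cell viability readout measuring growth inhibition of human NB13 cells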
Description: SANGER: Inhibition of human NB13 cell growth in a cell viability assay.

Calu-6 = format: functional, cell-based, Homo sapiens; conditions: Homo sapiens, Calu-6;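 note: growth of human Calu-6 cells, read out by a cell viability assay, IC50 marking inhibition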
Description: SANGER: Inhibition of human Calu-6 cell growth in a cell viability assay.

CGTH-W-1 = format: functional, cell-based, Homo sapiens; conditions: Homo sapiens, CGTH-W-1;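 note: growth inhibition of human CGTH-W-1 cells measured by cell viability assay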
Description: SANGER: Inhibition of human CGTH-W-1 cell growth in a cell viability assay.

LAN-6 = format: functional, cell-based, Homo sapiens; conditions: Homo sapiens, LAN-6;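 note: growth inhibition of LAN-6 cells, determined with a cell viability assay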
Description: SANGER: Inhibition of human LAN-6 cell growth in a cell viability assay.

HD-MY-Z = format: functional, cell-based, Homo sapiens; conditions: Homo sapiens, HD-MY-Z;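 note: growth inhibition of HD-MY-Z cells, read out with a cell viability assay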
Description: SANGER: Inhibition of human HD-MY-Z cell growth in a cell viability assay.

BB30-HNC = format: functional, cell-based, Homo sapiens; conditions: Homo sapiens, BB30-HNC;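 note: growth inhibition of the cultured cell line, read out by a cell viability assay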
Description: SANGER: Inhibition of human BB30-HNC cell growth in a cell viability assay.

SHP77 = format: functional, cell-based, Homo sapiens, SHP-77; conditions: Homo sapiens, SHP77;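 note: growth inhibition of human SHP-77 cells measured by a cell viability assay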
Description: SANGER: Inhibition of human SHP-77 cell growth in a cell viability assay.

COR-L88 = format: functional, cell-based; conditions: Homo sapiens;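 note: growth inhibition of COR-L88 cells, read out with a cell viability assay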
Description: SANGER: Inhibition of human COR-L88 cell growth in a cell viability assay.

BV-173 = format: functional, cell-based; conditions: Homo sapiens
Description: SANGER: Inhibition of human BV-173 cell growth in a cell viability assay.

GAK = format: functional, cell-based, Homo sapiens; conditions: Homo sapiens, GAK;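 note: cell growth inhibition read out by a cell viability assay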
Description: SANGER: Inhibition of human GAK cell growth in a cell viability assay.

TE-9 = format: functional, cell-based, Homo sapiens; conditions: Homo sapiens, TE-9;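 note: cell growth inhibition, measured with a cell viability readout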
Description: SANGER: Inhibition of human TE-9 cell growth in a cell viability assay.

LXF-289 cell line = format: functional, cell-based, Homo sapiens; conditions: Homo sapiens, LXF-289
Description: SANGER: Inhibition of human LXF-289 cell growth in a cell viability assay.

SNU-C2B = format: functional, cell-based, Homo sapiens; conditions: Homo sapiens, SNU-C2B;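 note: cell viability readout used to measure compound-driven suppression of SNU-C2B cell proliferation, IC50 marking half-maximal growth inhibition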
Description: SANGER: Inhibition of human SNU-C2B cell growth in a cell viability assay.

| SMILES | IC50 (RPMI-8866) | IC50 (GT3TKB) | IC50 (LAMA-84) | IC50 (D-502MG) | IC50 (SK-PN-DW) | IC50 (J-RT3-T3-5) | IC50 (CTB-1) | IC50 (KNS-42) | IC50 (C2BBe1) | IC50 (DJM-1) | IC50 (TK-10) | IC50 (NB13) | IC50 (Calu-6) | IC50 (CGTH-W-1) | IC50 (LAN-6) | IC50 (HD-MY-Z) | IC50 (SHP77) | IC50 (COR-L88) | IC50 (BV-173) | IC50 (TE-9) | other results |
| --- | --- | --- | --- | --- | --- | --- | --- | --- | --- | --- | --- | --- | --- | --- | --- | --- | --- | --- | --- | --- | --- |
| C=C1C(=O)O[C@@H]2C3O[C@]3(C)CC/C=C(\C)CC[C@@H]12 (some centres not stated) | > 5000 nM | > 5000 nM | > 5000 nM | > 5000 nM | > 5000 nM | > 5000 nM | 3850 nM | > 5000 nM | > 5000 nM | > 5000 nM | > 5000 nM | > 5000 nM | > 5000 nM | > 5000 nM | > 5000 nM | > 5000 nM | > 5000 nM | > 5000 nM | > 5000 nM | > 5000 nM | IC50 (BB30-HNC): > 5000 nM; IC50 (GAK): > 5000 nM; IC50 (LXF-289 cell line): > 5000 nM |
| CC1=C2C[C@H]3[C@@H](CC=C4C[C@@H](O)CC[C@@]43C)[C@@H]2CC[C@]12O[C@@H]1C[C@H](C)CN[C@H]1[C@H]2C [CYCLOPAMINE] | > 16000 nM | > 16000 nM | > 16000 nM | > 16000 nM | > 16000 nM | > 16000 nM | > 16000 nM | > 16000 nM | > 16000 nM | > 16000 nM | > 16000 nM | > 16000 nM | > 16000 nM | > 16000 nM | > 16000 nM | > 16000 nM | > 16000 nM | > 16000 nM | > 16000 nM | > 16000 nM | IC50 (BB30-HNC): > 16000 nM; IC50 (GAK): > 16000 nM; IC50 (LXF-289 cell line): > 16000 nM |
| CS(=O)(=O)CCNCc1ccc(-c2ccc3ncnc(Nc4ccc(OCc5cccc(F)c5)c(Cl)c4)c3c2)o1 [LAPATINIB] | > 2000 nM | > 2000 nM | > 2000 nM | > 2000 nM | > 2000 nM | > 2000 nM | > 2000 nM | > 2000 nM | > 2000 nM | > 2000 nM | > 2000 nM | > 2000 nM | > 2000 nM | > 2000 nM | > 2000 nM | > 2000 nM | > 2000 nM | > 2000 nM | > 2000 nM | 745 nM | IC50 (BB30-HNC): 247 nM; IC50 (LXF-289 cell line): > 2000 nM |
| CCc1nc(N)nc(N)c1-c1ccc(Cl)cc1 [PYRIMETHAMINE] | 9700 nM | > 20000 nM | 2660 nM | > 20000 nM | > 20000 nM | 2220 nM | > 20000 nM | > 20000 nM | > 20000 nM | > 20000 nM | 7420 nM | > 20000 nM | > 20000 nM | 17500 nM | > 20000 nM | 11900 nM | > 20000 nM | > 20000 nM | 12700 nM | > 20000 nM | IC50 (BB30-HNC): > 20000 nM; IC50 (GAK): > 20000 nM; IC50 (LXF-289 cell line): > 20000 nM |
| O=C(/C=C/c1ccccc1)NC(NC(=S)Nc1cccc2cccnc12)C(Cl)(Cl)Cl (configuration not stated) [SALUBRINAL] | > 16000 nM | > 16000 nM | 15700 nM | > 16000 nM | > 16000 nM | 14700 nM | > 16000 nM | > 16000 nM | > 16000 nM | > 16000 nM | > 16000 nM | > 16000 nM | > 16000 nM | > 16000 nM | > 16000 nM | > 16000 nM | > 16000 nM | > 16000 nM | 11500 nM | > 16000 nM | IC50 (BB30-HNC): > 16000 nM; IC50 (GAK): > 16000 nM; IC50 (LXF-289 cell line): 11200 nM |
| CN1CCN(CCOc2cc(OC3CCOCC3)c3c(Nc4c(Cl)ccc5c4OCO5)ncnc3c2)CC1 [SARACATINIB] | […] | […] | 160 nM | […] | […] | […] | […] | […] | 1210 nM | […] | 907 nM | […] | […] | […] | […] | […] | […] | […] | 652 nM | […] | IC50 (SNU-C2B): […]; IC50 (BB30-HNC): 862 nM; IC50 (GAK): […]; IC50 (LXF-289 cell line): […] |
| CO[C@H]1C[C@@H]2CC[C@@H](C)[C@@](O)(O2)C(=O)C(=O)N2CCCC[C@H]2C(=O)O[C@H]([C@H](C)C[C@@H]2CC[C@@H](O)[C@H](OC)C2)CC(=O)[C@H](C)/C=C(\C)[C@@H](O)[C@@H](OC)C(=O)[C@H](C)C[C@H](C)/C=C/C=C/C=C/1C [SIROLIMUS] | > 100 nM | > 100 nM | > 100 nM | > 100 nM | 20.2 nM | 6.46 nM | > 100 nM | > 100 nM | > 100 nM | > 100 nM | > 100 nM | 4.36 nM | > 100 nM | > 100 nM | > 100 nM | > 100 nM | > 100 nM | > 100 nM | 84 nM | > 100 nM | IC50 (SNU-C2B): > 100 nM; IC50 (BB30-HNC): > 100 nM; IC50 (GAK): > 100 nM; IC50 (LXF-289 cell line): > 100 nM |
| CNC(=O)c1cc(Oc2ccc(NC(=O)Nc3ccc(Cl)c(C(F)(F)F)c3)cc2)ccn1 [SORAFENIB] | […] | […] | 1380 nM | […] | […] | […] | […] | […] | […] | […] | […] | […] | […] | 250 nM | […] | […] | […] | […] | […] | […] | IC50 (GAK): […]; IC50 (LXF-289 cell line): […] |
| CCC(=O)N1CCN(c2ccc(-n3c(=O)ccc4cnc5ccc(-c6cnc7ccccc7c6)cc5c43)cc2C(F)(F)F)CC1 [TORIN1] | > 1200 nM | 109 nM | 21.7 nM | > 1200 nM | 49.5 nM | 91.5 nM | 222 nM | 82 nM | 137 nM | > 1200 nM | 40.2 nM | 47.8 nM | 165 nM | 184 nM | > 1200 nM | 24.3 nM | > 1200 nM | 1110 nM | 22 nM | 290 nM | IC50 (SNU-C2B): 243 nM; IC50 (BB30-HNC): 57.3 nM; IC50 (GAK): 31.9 nM; IC50 (LXF-289 cell line): 28.7 nM |
| Cc1cc(Nc2cc(N3CCN(C)CC3)nc(Sc3ccc(NC(=O)C4CC4)cc3)n2)n[nH]1 [TOZASERTIB] | […] | 1280 nM | 352 nM | […] | 791 nM | […] | […] | […] | […] | […] | […] | 280 nM | […] | […] | […] | […] | […] | […] | 126 nM | […] | IC50 (SNU-C2B): […]; IC50 (BB30-HNC): 226 nM; IC50 (GAK): […]; IC50 (LXF-289 cell line): 404 nM |

Reference: ChEMBL document CHEMBL1201861, “Genomics of Drug Sensitity in Cancer screening data, Wellcome Trust Sanger Institute”
